From patent publication US12371454B2, “Cyclic peptide compound having Kras inhibitory action” (priority 2019, dated 2025) come the findings set out here.

As a reminder, the pIC50 is the IC50 on a negative log10 scale, so that one unit is a factor of ten. High values mean a small IC50, low ones a large IC50.

SMILES strings stand for the structures. pIC50: −log10 of the molar value. Starred links: 1 amine or outer side, 2 acyl side, 3 side chain; linkers in the order of their positions; H or OH if unused. Positions of bridges follow the written chain, without caps; N, C: chain ends. Non-standard residues stand in square brackets, D forms with d. Residues, ends and D or L forms follow the SMILES beside them. *: point of attachment. hPhe(3-Cl-4-CF3) = N[C@@H](CCc1ccc(C(F)(F)F)c(Cl)c1)C(=O)O; hPhe(3-F,4-CF3) = N[C@@H](CCc1ccc(C(F)(F)F)c(F)c1)C(=O)O; NMedβ3hAla = C[C@H](CC(=O)[*:2])N(C)[*:1]; NMeGly(cPent) = CN[C@H](C(=O)O)C1CCCC1; NMeCha = CN[C@@H](CC1CCCCC1)C(=O)O; Gly(N-(CH2)2OEt) = CCOCCNCC(=O)O; NMeChg = CN[C@H](C(=O)O)C1CCCCC1; NMeI = CC[C@H](C)[C@H](NC)C(=O)O; NMeD = CN[C@@H](CC(=O)O)C(=O)O; NMeL = CN[C@@H](CC(C)C)C(=O)O; NMeV = CN[C@H](C(=O)O)C(C)C; d(β3hA) = C[C@@H](N)CC(=O)O; NMeS = CN[C@@H](CO)C(=O)O; Morpholide = C1CN(*)CCO1; NMeA = CN[C@@H](C)C(=O)O; Piperidide = C1CCN(*)CC1; Pyrrolidide = C1CCN(*)C1; Ac5c = NC1(C(=O)O)CCCC1; Aze = O=C(O)[C@@H]1CCN1; Cyclobutyl = C1CC(*)C1; Sar = CNCC(=O)O; Propyl = CCC*

The subject of the assay is Human pancreatic cancer cell line AsPC-1. Put plainly: Measurement of AsPC-1 cell growth inhibition (AsPC-1 CGI). The format is cell-based. As to conditions: 96 h. In a few lines: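 AsPC-1 cells in 15% FBS RPMI-1640 were exposed to test compound for 96 hours at 37° C, with CellTiter-Glo as endpoint.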
In turn, `CC[C@H](C)[C@@H]1NC(=O)[C@H](CC(C)C)N(C)C(=O)C[C@@H](C(=O)N2CCCCC2)N(C)C(=O)[C@H]([C@@H](C)CC)N(C)C(=O)C2(CCCC2)NC(=O)[C@@H]2CCCN2C(=O)[C@H](CCc2ccc(C(F)(F)F)c(Cl)c2)NC(=O)CN(C)C(=O)[C@H](C2CCCC2)N(C)C(=O)[C@@H]2CCN2C(=O)[C@H](C)N(C)C1=O` [Compound 807] ([NMeL]I[NMeA][Aze][NMeGly(cPent)][Sar][hPhe(3-Cl-4-CF3)]P[Ac5c][NMeI][NMeD]-Piperidide; lactam N-11) gave a pIC50 of 7.30 to 7.70.

As for `CCCOC[C@H]1C(=O)N(C)CC(=O)N[C@@H](CCc2ccc(C(F)(F)F)c(F)c2)C(=O)N2CCC[C@H]2C(=O)NC2(CCCC2)C(=O)N(C)[C@@H]([C@@H](C)CC)C(=O)N(C)[C@H](C(=O)N2CCOCC2)CC(=O)N(C)[C@@H](CC(C)C)C(=O)N[C@@H]([C@@H](C)CC)C(=O)N(C)[C@@H](C)C(=O)N2CC[C@H]2C(=O)N1C` [Compound 827] ([NMeL]I[NMeA][Aze][NMeS](Propyl)[Sar][hPhe(3-F,4-CF3)]P[Ac5c][NMeI][NMeD]-Morpholide; lactam N-11), the pIC50 is 7.30 to 7.70.

As to `CC[C@H](C)[C@@H]1NC(=O)[C@H](CC(C)C)N(C)C(=O)C[C@@H](C)N(C)C(=O)[C@H]([C@@H](C)CC)N(C)C(=O)C2(CCCC2)NC(=O)[C@@H]2CCCN2C(=O)[C@H](CCc2ccc(C(F)(F)F)c(F)c2)NC(=O)CN(C)C(=O)[C@H](CC2CCCCC2)N(C)C(=O)[C@@H]2CCN2C(=O)[C@H](C)N(C)C1=O` [Compound 859] (cyclo([Ac5c][NMeI][NMedβ3hAla][NMeL]I[NMeA][Aze][NMeCha][Sar][hPhe(3-F,4-CF3)]P)), the pIC50 was 7.00 to 7.30. In the case of `CC[C@H](C)[C@@H]1NC(=O)[C@H](CC(C)C)N(C)C(=O)C[C@@H](C(=O)N2CCCC2)N(C)C(=O)[C@H]([C@@H](C)CC)N(C)C(=O)C2(CCCC2)NC(=O)[C@@H]2CCCN2C(=O)[C@H](CCc2ccc(C(F)(F)F)c(F)c2)NC(=O)CN(C)C(=O)[C@H](CC2CCCCC2)N(C)C(=O)[C@@H]2CCN2C(=O)[C@H](C)N(C)C1=O` [Compound 868] ([NMeL]I[NMeA][Aze][NMeCha][Sar][hPhe(3-F,4-CF3)]P[Ac5c][NMeI][NMeD]-Pyrrolidide; lactam N-11) it was 7.30 to 7.70. With `CCOCCN1CC(=O)NC2(CCCC2)C(=O)N(C)[C@@H](C2CCCCC2)C(=O)N(C)[C@H](C(=O)N2CCCCC2)CC(=O)N(C)[C@@H](CC(C)C)C(=O)N[C@@H]([C@@H](C)CC)C(=O)N(C)CC(=O)N(C)CC(=O)N(C)[C@@H](CC2CCCCC2)C(=O)N(C)CC(=O)N[C@@H](CCc2ccc(C(F)(F)F)c(Cl)c2)C1=O` [Compound 872] ([NMeL]I[Sar][Sar][NMeCha][Sar][hPhe(3-Cl-4-CF3)][Gly(N-(CH2)2OEt)][Ac5c][NMeChg][NMeD]-Piperidide; lactam N-11), the pIC50 is 6.30 to 7.00.

Molecule `CC[C@H](C)[C@@H]1NC(=O)[C@H](C2CCCCC2)N(C)C(=O)C[C@@H](C)NC(=O)[C@H](C(C)C)N(C)C(=O)C2(CCCC2)NC(=O)[C@@H]2CCCN2C(=O)[C@H](CCc2ccc(C(F)(F)F)c(Cl)c2)NC(=O)CN(C)C(=O)[C@H](CC2CCCCC2)N(C)C(=O)[C@@H]2CCN2C(=O)[C@H](C)N(C)C1=O` [Compound 873] (cyclo([Ac5c][NMeV][d(β3hA)][NMeChg]I[NMeA][Aze][NMeCha][Sar][hPhe(3-Cl-4-CF3)]P)) gave a pIC50 of 6.30 to 7.00. In the case of `CC[C@H](C)[C@@H]1NC(=O)[C@H](CC(C)C)N(C)C(=O)C[C@@H](C(=O)N2CCCCC2)N(C)C(=O)[C@H]([C@@H](C)CC)N(C)C(=O)C2(CCCC2)NC(=O)[C@@H]2CCCN2C(=O)[C@H](CCc2ccc(C(F)(F)F)c(Cl)c2)NC(=O)CN(C)C(=O)[C@H](COC2CCC2)N(C)C(=O)[C@@H]2CCN2C(=O)[C@H](C)N(C)C1=O` [Compound 885] ([NMeL]I[NMeA][Aze][NMeS](Cyclobutyl)[Sar][hPhe(3-Cl-4-CF3)]P[Ac5c][NMeI][NMeD]-Piperidide; lactam N-11) it was 7.30 to 7.70.
